What was measured:
[1] = system: Haundel/Labrador dogs; test: In vivo histology of bone healing around rhOPN coated Ti implants in dogs; design: species or system dog; details: hollow screw Ti implants, dogs sacrificed after 4 and 8 weeks; vs uncoated
Source text: Forty implants (5 per quadrant) were placed in four Haundel/Labrador dogs after extraction of four premolars (PM1-PM4) and one molar (M1), and a three month healing period. Eight hollow screw Ti implants were coated with rhOPN. Eight uncoated implants served as controls. The remaining implants were coated with 3 additional different molecules denoted as study 2, study 3, and study 4.
Prior to implant placement, core samples from the donor place were taken to histologically analyze bone quality after extractions. This procedure, also ensured a hollow space for bone ingrowth inside the coated and uncoated implants. Dogs were sacrificed after 4 and 8 weeks.
Implants were recovered for histological analysis. Each implant was sectioned vertically. The core inside the hallow implant was removed using liquid nitrogen. Decalcified sections were embedded in paraffin and stained using Herovichi's techniques to differentiate immature from mature collagen. Light microscopy at 4× and 40× magnifications were used to compare histological differences between rhOPN coated implants and uncoated implants.
Uncoated implants show normal bone healing characterized by granulation tissue and a few areas of vascularization and matrix deposition after four weeks.

[2] = system: HOS cells; test: Attachment of HOS cells to Ti disks coated with rhOPN; format: cell-based, human; details: Ti disks coated with 50 μg of rhOPN; after 30 min; vs uncoated
Method: HOS cells were labeled overnight with 10 uCi ^3H-thymidine, then dissociated from the plate with non-enzymatic dissociation solution (Sigma), washed 2 times with PBS, and counted. ^3H-thymidine incorporated into TCA insoluble material was determined for the cells. 5000 cells (cpm total 1000) were plated onto coated or uncoated titanium disks and the disks incubated at 37° C. for 30 min. Unadhered cells were removed, and attached cells were washed 3 times with 0.5 ml PBS. The cells were lysed with ice cold 20% TCA and the radioactivity in the TCA insoluble fraction was determined using the Scintillation counter (Begman 5000).
5000 cells (total cpm 1000) were plated on either coated or uncoated Ti disks and incubated at 37° C. in a humidified atmosphere (95% air 5% CO2). After 30 min, unattached cells were removed and the disks were washed with PBS. The total number of attached cells was determined for the total cpm released for the disks after the cells were lysed with 10% TCA and solubilized in 5 ml scintillation fluid. All measurements were done in triplicates and graphed as mean±Standard error of the mean.
The initial events following seeding of cells onto Ti surfaces include the attachment, migration and proliferation of the seeded cells. Coating Ti disks with 50 μg of rhOPN enhanced by 1100% the attachment of HOS cells to Ti disks (FIG. 2), after 30 min.

[3] = system: HOS cells; test: Extracellular matrix mineralization (calcium content) of HOS cells on coated Ti disks; format: cell-based, human; details: ascorbate and β-glycerol phosphate, uncoated did not mineralize
Method: HOS cells were grown either on coated or uncoated titanium disks. Media was supplemented with ascorbate and b-glycerol phosphate to stimulate the mineralization of the extracellular matrix. After two weeks, media was removed and the cells were lysed with triton. Then, all soluble components were removed and calcium content was determined using quantitative, calorimetric determination at […] (Sigma Diagnostics Calcium). Basically, calcium reacts with o-cresolphthalein, a chromogenic agent that in an alkaline medium forms a purple colored complex. The intensity of the color, measured at […], is directly proportional to calcium concentration in the sample.
HOS cells were grown either on coated or uncoated titanium disks. Media was supplemented with ascorbate and β-glycerol phosphate. After two weeks, media was removed and the cells were lysed. Then, all soluble components were removed and calcium content was determined using quantitative, colorimetric determination at 575 nm (Sigma Diagnostics Calcium). All measurements were done in triplicates and reported as mean±Standard error in the mean.
When cultured in the presence of ascorbate and β-glycerol phosphate, HOS cells grown on coated Ti disks mineralized their extracellular matrix within 2 weeks (FIG. 5) in a manner similar to HOS cells cultured on plastic. […]

[4] = system: HOS cells; test: Proliferation of HOS cells on plastic, glass or CrCo surfaces coated with rhOPN; format: cell-based, human
Method: Cell proliferation was determined by the rate of ^3H-Thymidine incorporation into DNA. Cells labeled with ^3H-Thymidine were seeded for 6 hours, then lysed with TCA. The TCA insoluble material was collected and resuspended in 0.5 N NaOH. ^3H-thymidine incorporation into TCA insoluble material was used as an index for cell proliferation. Rate of proliferation is expressed as cpm/1000 cells/6 h. All measurements were done in triplicates.
Since rhOPN promoted cell attachment to different surfaces, it was of interest to examine whether the protein had any effect on the proliferation of HOS grown on these surfaces.

[5] = system: HOS cells; test: Proliferation of HOS cells on Ti disks coated with rhOPN (3H-thymidine incorporation); format: cell-based, human
Method: Cell proliferation was determined by the rate of ^3H-Thymidine incorporation into DNA. Cells were labeled with 10 μCi/ml of ^3H-Thymidine in DME media. After 6 hours, the cells were lysed in cold 10% trichloroacetic acid (TCA). The TCA insoluble material was collected and washed several times with 10% TCA, then resuspended in 0.5 N NaOH. ^3H-thymidine incorporation into TCA insoluble material was used as an index of cell proliferation. The material collected was mixed with scintillation liquid (Begman). The amount of radiation generated was compared between cells grown in titanium disks uncoated, and titanium disks coated with OPN.
Cell proliferation was determined by the rate of ^3H-Thymidine incorporation into DNA. Cells labeled with ^3H-Thymidine were seeded for 6 hours, then lysed with TCA. The TCA insoluble material was collected and resuspended in 0.5 N NaOH. ^3H-thymidine incorporation into TCA insoluble material was used as an index for cell proliferation. Rate of proliferation is expressed as cpm/1000 cells/6 h. Control group: 254,54, rhOPN group: 560,83. All measurements were done in triplicates and reported as mean±Standard error for the mean.
Since rhOPN promoted cell attachment to Ti disks, it was of interest to examine whether the protein had any effect on the proliferation of HOS grown on Ti disks.

[6] = system: HOS cells; test: Attachment of HOS cells to plastic, glass or chromocobalt surfaces coated with OPN; format: cell-based, human; details: 1 hour
Method: 500 cells were plated on coated plastic, glass or chromocobalt surfaces and incubated at 37° C. in a humidified atmosphere (95% air 5% CO2). Surfaces were coated with either human recombinant phosphorylated OPN (rhOPN) or unphosphorylated OPN. Fibronectin coated surfaces were used as a control. After 1 hour, unattached cells were removed and the surfaces were washed with PBS. The total number of attached cells was determined for the total cpm released for the surfaces after the cells were lysed with 10% TCA and solubilized in 5 ml scintillation fluid. All measurements were done in triplicates.

Substance: rhOPN: human recombinant phosphorylated form of osteopontin
- bone healing around implants (histology) [1]: enhanced bone healing
- enhancement of attachment of HOS cells to Ti disks [2]: 1100%
- time within which HOS cells mineralized their extracellular matrix [3]: ≤ 2 weeks
- Proliferation Rate ([4]; CrCo): 1740 Cpm/6 h/1000 cells
- Proliferation Rate ([4]; Glass): 2740 Cpm/6 h/1000 cells
- Proliferation Rate ([4]; Plastic): 3300 Cpm/6 h/1000 cells
- proliferation rate relative to cells grown on uncoated surfaces ([4]; glass, plastic and chromocobalt surfaces): at least twice
- Rate of proliferation [5]: 560,83 cpm/1000 cells/6 h
- proliferation rate relative to cells grown on uncoated Ti disks [5]: approximately twice
- % total attached ([6]; Plastic surface): 90.8%
- % total attached ([6]; chromocobalt (CrCo) surface): 69.2%
- % total attached ([6]; glass surface): 98.1%
